SMILES strings stand for the structures.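 Following 48 hours of exposure in 96-well plates, responses at five concentrations were used to interpolate endpoints linearly. GI50 = concentration required for 50% inhibition of growth. TGI: concentration producing complete growth inhibition.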 Bounds are passed on as bounds.

Test systems include LXFL 529 NSCLC; DLD-1 colon; M19-MEL melanoma; DMS 114 small cell lung; DMS 273 small cell lung; KM20L2 colon; DU-145 prostate; HS 578T breast; MCF7 breast; MDA-MB-231 breast.
Assay in all cases: NCI anticancer screen, dose series, 48 h

As for `CCCNC1=C(C(=O)OCC)C(=O)CO1`, the TGI with LXFL 529 NSCLC, with DLD-1 colon, with M19-MEL melanoma, in the test with DMS 114 small cell lung, in the test with DMS 273 small cell lung and with KM20L2 colon was > 100 µM throughout.
As for `Cc1ccc(-c2cn3ccnc3c(-c3ccc(Cl)cc3)n2)cc1`, the GI50 in the test on DU-145 prostate was 0.214 µM; in the test with HS 578T breast, 0.115 µM; in the test on MCF7 breast it was 0.28 µM; with MDA-MB-231 breast, 0.506 µM. Moreover, the TGI with DU-145 prostate worked out at 52.9 µM; in the test with HS 578T breast, 9.39 µM; with MCF7 breast, 19.2 µM; with MDA-MB-231 breast, 50.1 µM.
On to `CC(C)c1cc(-c2n[nH]c(=O)n2-c2ccc3c(ccn3C)c2)c(O)cc1O`, for which the GI50 in the test with DU-145 prostate was < 0.0237 µM; in the test with HS 578T breast, 0.682 µM; in the test on MCF7 breast, < 0.0161 µM; in the test on MDA-MB-231 breast, < 0.023 µM. For the same compound, the TGI stood at 23 µM in the test on DU-145 prostate, 90.1 µM in the test with HS 578T breast, 17.3 µM with MCF7 breast and 7.52 µM in the test with MDA-MB-231 breast.
Turning to `CC[C@@H](C(=O)O)C1CC[C@H](C)C([C@@H](C)[C@H](O)[C@H](C)C(=O)[C@H](CC)C2O[C@]3(C=C[C@@H](O)[C@]4(CC[C@@](C)(C5CC[C@](O)(CC)[C@H](C)O5)O4)O3)[C@H](C)C[C@@H]2C)O1` (stereo partly specified), the GI50 in the test with DU-145 prostate was 0.805 µM; with HS 578T breast, 0.0767 µM; with MCF7 breast, 0.11 µM; in the test on MDA-MB-231 breast it was 0.863 µM. For the same compound, the TGI turned out to be 32.4 µM in the test on DU-145 prostate, 12.4 µM in the test with HS 578T breast, 13.9 µM in the test on MCF7 breast and 5.51 µM in the test with MDA-MB-231 breast.
On to `NCCn1c(=O)[nH]c(=O)[nH]c1=S`, for which the GI50 in the test on DU-145 prostate was > 100 µM; with HS 578T breast, > 100 µM; with MCF7 breast it was 61.1 µM; in the test with MDA-MB-231 breast, > 100 µM. In addition, the TGI in the test with DU-145 prostate, in the test on HS 578T breast, in the test with MCF7 breast and in the test on MDA-MB-231 breast was > 100 µM throughout.
For `CC1=C(Oc2ccccc2)C(CCC(=O)O)c2c(O)cc(Cl)c(O)c21` (stereo unspecified), the TGI with DLD-1 colon, with M19-MEL melanoma, with DMS 114 small cell lung, in the test on DMS 273 small cell lung and in the test with KM20L2 colon was > 100 µM throughout.
Regarding `Cc1cc(N(CCCl)CCCl)ccc1C=Nc1ccc(-c2csc(Cc3ccccc3)n2)cc1`, the GI50 with DU-145 prostate was 7.98 µM; in the test with HS 578T breast, 20.3 µM; in the test on MCF7 breast it was 4.66 µM; in the test with MDA-MB-231 breast it was 12.3 µM. For the same compound, the TGI came out at 62.3 µM in the test on DU-145 prostate, 83.7 µM with HS 578T breast, 43.3 µM in the test on MCF7 breast and 49.5 µM in the test on MDA-MB-231 breast.
`CN(C)CCCNC(CC#N)CCC#N` (stereo unspecified): the TGI in the test with DU-145 prostate, in the test on HS 578T breast, in the test with MCF7 breast and with MDA-MB-231 breast was > 10 µM each time.
`CC1OC(O[C@@H]2OC=C(C=O)[C@@]3(O)CC[C@H](C)[C@@H]23)C(O)C(O)C1O` (stereo partly specified): the TGI in the test with DU-145 prostate, with HS 578T breast, in the test with MCF7 breast and in the test with MDA-MB-231 breast was > 100 µM throughout.
As to `CCOC(=O)c1cc(NS(=O)(=O)c2ccccc2)cc(C(=O)OCC)c1`, the GI50 in the test on DU-145 prostate, with HS 578T breast, in the test with MCF7 breast and with MDA-MB-231 breast was > 100 µM in each case. Further, the TGI in the test with DU-145 prostate, in the test with HS 578T breast, in the test with MCF7 breast and in the test with MDA-MB-231 breast was > 100 µM each time.
With `Cn1cccc1-c1cc(-c2cccs2)nc(N)c1C#N`, the GI50 with DU-145 prostate, with HS 578T breast, in the test on MCF7 breast and in the test on MDA-MB-231 breast was > 100 µM throughout. The TGI with DU-145 prostate, with HS 578T breast, in the test on MCF7 breast and with MDA-MB-231 breast was > 100 µM in each case.
Turning to `COc1ccc2c(c1)/C(=C\c1c(C)nc3sccn13)C(=O)N2`, the GI50 in the test with DU-145 prostate was 0.55 µM; in the test on HS 578T breast it was 0.224 µM; in the test on MDA-MB-231 breast it was < 0.01 µM. The TGI is > 100 µM in the test on DU-145 prostate, 15.2 µM in the test on HS 578T breast, > 100 µM in the test on MCF7 breast and 26.2 µM in the test on MDA-MB-231 breast.
As to `COc1ccc2sc3c(NCCCN(C)C)nc4ccccc4c3c(=O)c2c1`, the GI50 with DU-145 prostate is 1.66 µM; in the test with HS 578T breast it was 1.49 µM; in the test on MCF7 breast it was 1.74 µM; in the test on MDA-MB-231 breast, 1.38 µM. Further, the TGI in the test on DU-145 prostate was determined as 3.07 µM; in the test with HS 578T breast, 3.26 µM; in the test with MCF7 breast, 3.4 µM; in the test on MDA-MB-231 breast it was 2.8 µM.
Regarding `C=CCOc1cccc(/C=C2\SC(=Nc3ccc(O)cc3)NC2=O)c1`, the GI50 was 0.399 µM in the test on DU-145 prostate, 0.414 µM with HS 578T breast, 0.361 µM with MCF7 breast and 0.975 µM in the test with MDA-MB-231 breast. The TGI in the test with HS 578T breast was 12.4 µM; with MCF7 breast, > 57.8 µM; in the test on MDA-MB-231 breast, 6.62 µM.
Take `NCCOCCOCCNc1nc(Cc2ccccc2)nc(NCCCN2CCCC2=O)n1`: the GI50 in the test with DU-145 prostate, in the test with HS 578T breast, in the test with MCF7 breast and in the test with MDA-MB-231 breast was > 100 µM each time. For the same compound, the TGI in the test on DU-145 prostate, with HS 578T breast, in the test with MCF7 breast and with MDA-MB-231 breast was > 100 µM throughout.
`COc1ccc(-c2c3c(N)nc(-c4ccncc4)nc3nc3c2c(C)nn3-c2ccccc2)cc1`: the GI50 is 7.39 µM in the test with DU-145 prostate, 16.5 µM with HS 578T breast, 4.28 µM with MCF7 breast and 3.71 µM in the test with MDA-MB-231 breast. For the same compound, the TGI is > 100 µM in the test with DU-145 prostate, > 100 µM in the test on HS 578T breast, > 100 µM with MCF7 breast and 46.5 µM with MDA-MB-231 breast.
In the case of `Oc1cccc2ccc(N/N=C/c3cc(CN4CCCCC4)c(O)c4ncccc34)nc12`, the GI50 in the test on DU-145 prostate is 0.109 µM; in the test on HS 578T breast it was 0.147 µM; in the test with MCF7 breast it was 0.034 µM; in the test on MDA-MB-231 breast, 0.0991 µM. Besides, the TGI in the test on DU-145 prostate came to 3.18 µM; in the test on HS 578T breast, 29.4 µM; in the test on MCF7 breast, 1.28 µM; in the test on MDA-MB-231 breast, 2.03 µM.

The values above are taken from PubChem BioAssay (NCI).
